Where two headings read alike, the source gives them in different places.
Biological target: T1, NMDA receptor (Rattus norvegicus, UniProt P35439+Q00960)
T1 construct: Membranes were prepared by homogenization of the whole brain minus cerebellum and medulla oblongata; from tissue; host or cells: rat whole brain minus cerebellum and medulla oblongata (membranes)
Assay: 3H-Ro 25-6981 binding (displacement) on rat brain membranes
Design: species or system Füllinsdorf albino rats
Method: 3H-Ro 25-6981 binding (Ro 25-6981 is [R-(R*,S*)]-a-(4-Hydroxy-phenyl)-b-methyl-4-(phenyl-methyl)-1-piperidine propanol)
Male Füllinsdorf albino rats weighing between 150-200 g were used. Membranes were prepared by homogenization of the whole brain minus cerebellum and medulla oblongata with a Polytron (10.000 rpm, 30 seconds), in 25 volumes of a cold Tris-HCl 50 mM, EDTA 10 mM, pH 7.1 buffer. The homogenate was centrifuged at 48.000 g for 10 minutes at 4°C. The pellet was resuspended using the Polytron in the same volume of buffer and the homogenate was incubated at 37°C for 10 minutes. After centrifugation the pellet was homogenized in the same buffer and frozen at -80°C for at least 16 hours but not more than 10 days. For the binding assay the homogenate was thawed at 37°C, centrifuged and the pellet was washed three times as above in a Tris-HCl 5 mM, pH 7.4 cold buffer. The final pellet was resuspended in the same buffer and used at a final concentration of […] of protein/ml.
3H-Ro 25-6981 binding experiments were performed using a Tris-HCl 50 mM, pH 7.4 buffer. For displacement experiments 5 nM of 3H-Ro 25-6981 were used and non specific binding was measured using 10 mM of tetrahydroisoquinoline and usually it accounts for 10% of the total. The incubation time was 2 hours at 4°C and the assay was stopped by filtration on Whatmann GF/B glass fiber filters (Unifilter-96, Packard, Zürich, Switzerland). The filters were washed 5 times with cold buffer. The radioactivity on the filter was counted on a Packard Top-count microplate scintillation counter after addition of […] of microscint 40 (Canberra Packard S.A., Zürich, Switzerland).
The effects of compounds were measured using a minimum of 8 concentrations and repeated at least once. The pooled normalized values were analyzed using a non-linear regression calculation program which provide IC50 with their relative upper and lower 95% confidence limits (RS1, BBN, USA).

[1] = displacement of 5 nM 3H-Ro 25-6981, rat whole brain membranes (minus cerebellum and medulla oblongata), 2 hours at 4°C, read-out: IC50

T1 sequence (Q00960 27-1482, other chains not shown): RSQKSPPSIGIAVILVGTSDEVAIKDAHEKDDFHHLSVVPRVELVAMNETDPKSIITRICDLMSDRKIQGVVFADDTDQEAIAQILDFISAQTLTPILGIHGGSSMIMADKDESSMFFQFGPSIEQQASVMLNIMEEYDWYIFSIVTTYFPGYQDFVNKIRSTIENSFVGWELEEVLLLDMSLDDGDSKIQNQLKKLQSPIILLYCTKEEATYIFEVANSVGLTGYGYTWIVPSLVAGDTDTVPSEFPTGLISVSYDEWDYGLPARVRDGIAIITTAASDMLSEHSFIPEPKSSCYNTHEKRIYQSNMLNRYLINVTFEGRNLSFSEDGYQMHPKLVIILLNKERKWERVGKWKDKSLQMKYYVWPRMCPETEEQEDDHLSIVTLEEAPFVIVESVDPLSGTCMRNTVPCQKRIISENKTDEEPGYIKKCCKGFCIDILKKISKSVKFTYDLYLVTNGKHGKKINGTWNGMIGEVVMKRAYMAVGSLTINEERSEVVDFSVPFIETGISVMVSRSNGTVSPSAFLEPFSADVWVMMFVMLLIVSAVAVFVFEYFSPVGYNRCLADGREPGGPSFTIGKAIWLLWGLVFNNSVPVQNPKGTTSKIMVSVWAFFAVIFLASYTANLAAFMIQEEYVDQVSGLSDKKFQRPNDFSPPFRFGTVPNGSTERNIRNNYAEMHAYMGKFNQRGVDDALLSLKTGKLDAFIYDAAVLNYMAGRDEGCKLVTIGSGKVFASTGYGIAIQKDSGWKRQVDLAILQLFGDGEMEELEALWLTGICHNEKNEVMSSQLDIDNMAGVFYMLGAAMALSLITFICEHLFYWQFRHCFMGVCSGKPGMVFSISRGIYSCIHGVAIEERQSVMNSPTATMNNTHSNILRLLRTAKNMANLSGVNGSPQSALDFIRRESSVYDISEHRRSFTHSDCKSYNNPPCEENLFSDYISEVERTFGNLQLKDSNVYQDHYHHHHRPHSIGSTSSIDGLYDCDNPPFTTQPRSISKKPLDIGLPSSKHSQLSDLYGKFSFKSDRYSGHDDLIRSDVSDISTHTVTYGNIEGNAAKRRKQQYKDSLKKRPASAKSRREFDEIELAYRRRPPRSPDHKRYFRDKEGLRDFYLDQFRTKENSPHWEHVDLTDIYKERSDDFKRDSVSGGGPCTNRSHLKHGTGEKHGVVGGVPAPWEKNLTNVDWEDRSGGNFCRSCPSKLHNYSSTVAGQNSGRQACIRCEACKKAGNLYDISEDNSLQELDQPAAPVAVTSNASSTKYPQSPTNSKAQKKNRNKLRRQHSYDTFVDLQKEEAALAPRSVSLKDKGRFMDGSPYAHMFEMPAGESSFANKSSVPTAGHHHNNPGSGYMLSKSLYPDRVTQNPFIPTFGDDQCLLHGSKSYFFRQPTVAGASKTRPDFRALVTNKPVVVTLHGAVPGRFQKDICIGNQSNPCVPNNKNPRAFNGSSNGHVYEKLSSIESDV

Compound	IC50 [1] [nM]	IC50 [nM]
CN(CCCc1ccccc1)[C@H]1CC[C@H](c2ccc(NS(C)(=O)=O)cc2)CC1 [Example 56, trans-N-(4-{4-[Methyl-(3-phenyl-propyl)-amino]-cyclohexyl}-phenyl)-methanesulfonamide]	11	–
CN(CCC(O)c1ccccc1)[C@H]1CC[C@H](c2ccc(O)cc2)CC1 (mixture of isomers) [Example 63b, (RS)-4-[trans-4-[(3-Hydroxy-3-phenyl-propyl)-methyl-amino]-cyclohexyl]-phenol]	20	–
CN(CCCc1ccc(F)cc1)[C@H]1CC[C@H](c2ccc(O)cc2)CC1 [Example 61b, trans-4-(4-{[3-(4-Fluoro-phenyl)-propyl]-methyl-amino}-cyclohexyl)-phenol]	4	–
Cc1cccc(OCCN(C)[C@H]2CC[C@H](c3ccc(O)cc3)CC2)c1 [Example 47b, trans-4-{4-[Methyl-(2-m-tolyloxy-ethyl)-amino]-cyclohexyl}-phenol]	30	–
CN(CCCc1ccccc1)C1CCN(c2ccc(O)cc2)CC1 [Example 75, 4-[4-[Methyl-(3-phenyl-propyl)-amino]-piperidin-1-yl]-phenol]	7	–
Oc1ccc(C2(O)CCC(NCCCc3ccccc3)CC2)cc1 (stereo not drawn) [Example 71c, cis-4-[1-Hydroxy-4-(3-phenyl-propylamino)-cyclohexyl]-phenol]	–	25
CN(CCC(CO)c1ccccc1)[C@H]1CC[C@H](c2ccc(O)cc2)CC1 (mixture of isomers) [Example 67b, (RS)-4-[trans-4-[(4-Hydroxy-3-phenyl-butyl)-methyl-amino]-cyclohexyl]-phenol]	100	–
C[C@@H]1C[C@H](c2ccc(O)cc2)CC[C@H]1NCCCc1ccccc1 (racemic) [Example 74c, (1RS,3RS,4RS)-4-[3-Methyl-4-(3-phenyl-propylamino)-cyclohexyl]-phenol]	10	–
C[C@@H]1CN(c2ccc(O)cc2)CC[C@@H]1NCCCc1ccccc1 (racemic) [Example 81g, (3RS,4SR)-4-[3-Methyl-4-(3-phenyl-propylamino)-piperidin-1-yl]-phenol]	27	–
CN(CCOc1ccc(F)cc1)[C@H]1CC[C@H](c2ccc(O)cc2)CC1 [Example 46b, trans-4-(4-{[2-(4-Fluoro-phenoxy)-ethyl]-methyl-amino}-cyclohexyl)-phenol]	10	–
CN(CCCc1ccccc1)[C@H]1CC[C@H](c2ccc(O)cc2)CC1 [Example 39b, trans-4-{4-[Methyl-(3-phenyl-propyl)-amino]-cyclohexyl}-phenol]	9	–
Oc1ccc(N2CCC(NCCCc3ccccc3)CC2)cc1 [Example 77, 4-[4-(3-Phenyl-propylamino)-piperidin-1-yl]-phenol]	7	–
Cc1ccccc1OCCN(C)[C@H]1CC[C@H](c2ccc(O)cc2)CC1 [Example 48c, trans-4-{4-[Methyl-(2-o-tolyloxy-ethyl)-amino]-cyclohexyl}-phenol]	40	–
Cc1ccc(OCCN(C)[C@H]2CC[C@H](c3ccc(O)cc3)CC2)cc1 [Example 44b, trans-4-[4-[Methyl-(2-p-tolyloxy-ethyl)-amino]-cyclohexyl]-phenol]	8	–
CCN(CCCc1ccccc1)[C@H]1CC[C@H](c2ccc(O)cc2)CC1 [Example 40c, trans-4-{4-[Ethyl-(3-phenyl-propyl)-amino]-cyclohexyl}-phenol]	40	–
Cc1ccc(OCCN(C)[C@H]2CC[C@@H](c3ccc(O)cc3)CC2)cc1 [Example 45b, cis-4-[4-[Methyl-(2-p-tolyloxy-ethyl)-amino]-cyclohexyl]-phenol]	130	–

Compound	IC50 [1] [nM]	IC50 [nM]
Cc1ccc(CCCN[C@H]2CC[C@H](c3ccc(O)cc3)CC2)cc1 [Example 60b, trans-4-[4-(3-p-Tolyl-propylamino)-cyclohexyl]-phenol]	7	–
OCC(CN[C@H]1CC[C@H](c2ccc(O)cc2)CC1)Cc1ccccc1 (mixture of isomers) [Example 70b, (RS)-4-[trans-4-(2-Hydroxymethyl-3-phenyl-propylamino)-cyclohexyl]-phenol]	100	–
Oc1ccc([C@H]2CC[C@H](NCCCc3ccc(F)cc3)CC2)cc1 [Example 62b, trans-4-[4-[3-(4-Fluoro-phenyl)-propylamino]-cyclohexyl]-phenol]	6	–
Oc1ccc([C@H]2CC[C@H](NCC(O)Cc3ccccc3)CC2)cc1 (mixture of isomers) [Example 50, (RS)-4-[trans-4-(2-Hydroxy-3-phenyl-propylamino)-cyclohexyl]-phenol]	80	–
CC(CCc1ccccc1)N[C@H]1CC[C@H](c2ccc(O)cc2)CC1 (mixture of isomers) [Example 58, 4-[trans-4-[(RS)-1-Methyl-3-phenyl-propylamino)-cyclohexyl]-phenol]	40	–
CN(C(CO)CCc1ccccc1)[C@H]1CC[C@H](c2ccc(O)cc2)CC1 (mixture of isomers) [Example 65b, (RS)-4-[trans-4-[(1-Hydroxymethyl-3-phenyl-propyl)-methyl-amino]-cyclohexyl]-phenol]	10	–
Oc1ccc([C@H]2OC[C@H](NCCCc3ccccc3)CO2)cc1 [Example 85, trans-4-[5-(3-Phenyl-propylamino)-[1,3]dioxan-2-yl]-phenol 1:1 but-2-enedioic acid]	–	22
Oc1ccc([C@H]2CC[C@H](NCCC(O)c3ccccc3)CC2)cc1 (mixture of isomers) [Example 64b, (RS)-4-[trans-4-(3-Hydroxy-3-phenyl-propylamino)-cyclohexyl]-phenol]	60	–
CN(CCOc1ccccc1)[C@H]1CC[C@H](c2ccc(O)cc2)CC1 [Example 41b, trans-4-{4-[Methyl-(2-phenoxy-ethyl)-amino]-cyclohexyl}-phenol]	20	–
Oc1ccc([C@H]2CC[C@H](NCCCCc3ccccc3)CC2)cc1 [Example 24, trans-4-[4-(4-Phenyl-butylamino)-cyclohexyl]-phenol]	70	–
Oc1ccc([C@H]2CC[C@H](NCCCc3ccccc3)CC2)cc1 [Example 22b, trans-4-[4-(3-Phenyl-propylamino)-cyclohexyl]-phenol]	20	–
C[C@@H]1C[C@H](c2ccc(O)cc2)CC[C@H]1N(C)CCCc1ccccc1 (racemic) [Example 73b, (1RS,3RS,4RS)-4-[3-Methyl-4-[methyl-(3-phenyl-propyl)-amino]-cyclohexyl]-phenol]	10	–
Oc1ccc(N2CCC(NCCCCc3ccccc3)CC2)cc1 [Example 83c, 4-[4-(4-Phenyl-butylamino)-piperidin-1-yl]-phenol]	60	–
OCC(CCc1ccccc1)N[C@H]1CC[C@H](c2ccc(O)cc2)CC1 (mixture of isomers) [Example 66c, (RS)-4-[trans-4-(1-Hydroxymethyl-3-phenyl-propylamino)-cyclohexyl]-phenol]	20	–
Oc1ccc([C@H]2CC[C@H](NCCOc3ccccc3)CC2)cc1 [Example 43b, trans-4-[4-(2-Phenoxy-ethylamino)-cyclohexyl]-phenol]	20	–
CC(CCc1ccccc1)N(C)[C@H]1CC[C@H](c2ccc(O)cc2)CC1 (mixture of isomers) [Example 57b, (RS)-4-[trans-4-[Methyl-(1-methyl-3-phenyl-propyl)-amino]-cyclohexyl]-phenol]	10	–

From patent EP0982026A2, “Use of aryl-cyclohexylamine derivatives in the manufacture of NMDA receptor blockers” (priority 1998, dated 2000)
